Where two headings read alike, the source gives them in different places.
How the values were obtained:
CB1R [1] = molecular target: T1, CB1R (Mus musculus, UniProt P47746); assay: Operational model bias analysis, Neuro2a cells; assay type: cell-based; conditions: for ΔΔlog R β-arrestin1/pPLCβ3: reference 2-AG + GAT100
CB1R [2] = test system: CB1R
CB1R [3] = molecular target: T1, CB1R; conditions: STHdh^Q7/Q7; 1 μM + 500 nM CP55,940
CB1R [4] = molecular target: T2, CB1R (Homo sapiens, UniProt P21554); assay type: cell-based; conditions: HEK293A, 10 min
CB1R [5] = molecular target: T2, CB1R; assay: cell-based
CB1R [6] = assay type: cell-based; conditions: mean of data for the pathway (Table 2), all cells and orthosteric ligands
hCB1R = assay: Operational model bias analysis, HEK293A cells; assay type: cell-based, human; conditions: HEK293A; for ΔΔlog R β-arrestin1/cAMP / ΔΔlog R β-arrestin1/pPLCβ3: reference 2-AG + GAT100
CB1R [7] = assay type: cell-based; conditions: mean of data for the pathway (Table 3), all cells and orthosteric ligands
CB1R [8] = molecular target: T2, CB1R; assay type: cell-based; conditions: HEK293A, 30 min
CB1R [9] = molecular target: T1, CB1R; assay type: cell-based; conditions: Neuro2a, 10 min
CB1R [10] = molecular target: T1, CB1R; assay: Operational model bias analysis, STHdh^Q7/Q7 cells; conditions: STHdh^Q7/Q7
CB1R [11] = molecular target: T2, CB1R; assay: cell-based; assay type: cell-based
CB1R [12] = molecular target: T2, CB1R; assay: [3H]SR141716A equilibrium binding, hCB1R CHO cell membranes
CB1R [13] = molecular target: T1, CB1R; assay type: cell-based; conditions: Neuro2a, 10 min; remark: listed apart in the source
CB1R [14] = molecular target: T2, CB1R; assay type: cell-based; conditions: Neuro2a, 30 min
CB1R [15] = conditions: cited from earlier work
CB1R [16] = molecular target: T2, CB1R; assay: cell-based; assay type: cell-based; remark: listed apart in the source
[17] = 500 nM 2-AG + 1 nM-10 μM allosteric modulator
[18] = 500 nM AEA + 1 nM-10 μM allosteric modulator
[19] = 500 nM CP55,940 + 1 nM-10 μM allosteric modulator

T1 sequence (P47746 whole entry): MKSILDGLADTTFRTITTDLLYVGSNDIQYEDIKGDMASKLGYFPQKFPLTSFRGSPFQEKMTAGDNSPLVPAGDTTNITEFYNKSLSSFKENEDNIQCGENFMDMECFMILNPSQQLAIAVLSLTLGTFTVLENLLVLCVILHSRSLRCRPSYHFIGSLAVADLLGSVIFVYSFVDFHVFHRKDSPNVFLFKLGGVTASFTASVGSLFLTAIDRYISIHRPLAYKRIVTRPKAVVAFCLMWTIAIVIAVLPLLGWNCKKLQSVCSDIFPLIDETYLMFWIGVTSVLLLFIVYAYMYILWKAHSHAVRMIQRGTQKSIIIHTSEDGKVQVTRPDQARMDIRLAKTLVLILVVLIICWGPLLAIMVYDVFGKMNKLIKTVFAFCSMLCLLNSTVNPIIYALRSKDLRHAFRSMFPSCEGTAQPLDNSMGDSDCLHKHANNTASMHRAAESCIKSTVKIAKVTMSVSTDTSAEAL
T2 sequence (P21554 whole entry): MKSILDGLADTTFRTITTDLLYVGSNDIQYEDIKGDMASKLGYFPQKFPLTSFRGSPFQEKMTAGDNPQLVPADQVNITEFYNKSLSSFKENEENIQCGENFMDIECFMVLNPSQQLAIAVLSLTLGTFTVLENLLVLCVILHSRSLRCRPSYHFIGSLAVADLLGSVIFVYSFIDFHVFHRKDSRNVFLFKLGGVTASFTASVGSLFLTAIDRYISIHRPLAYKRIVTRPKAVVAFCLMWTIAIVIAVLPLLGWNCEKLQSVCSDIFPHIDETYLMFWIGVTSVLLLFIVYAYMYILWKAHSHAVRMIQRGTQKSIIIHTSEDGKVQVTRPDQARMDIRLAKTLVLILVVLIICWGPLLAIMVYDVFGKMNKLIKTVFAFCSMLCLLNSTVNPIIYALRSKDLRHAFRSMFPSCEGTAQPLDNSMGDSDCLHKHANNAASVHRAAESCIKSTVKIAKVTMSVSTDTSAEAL

CCc1c(C(=O)NCCc2ccc(N3CCCCC3)cc2)[nH]c2ccc(Cl)cc12 [Org27569, 5-chloro-3-ethyl-N-(4-(piperidin-1-yl)phenethyl)-1H-indole-2-carboxamide]
BF β-arrestin1/pERK1/2 (CB1R [1]; [17]): 3.2
BF β-arrestin1/pPLCβ3 (CB1R [1]; [17]): 0.6
ΔΔlog R β-arrestin1/pPLCβ3 (CB1R [1]; [17]): –0.2 ± 0.2
BF β-arrestin1/pERK1/2 (CB1R [1]; [18]): 1.6
BF β-arrestin1/pPLCβ3 (CB1R [1]; [18]): 4.0
ΔΔlog R β-arrestin1/pPLCβ3 (CB1R [1]; [18]): 0.6 ± 0.2
BF β-arrestin1/pERK1/2 (CB1R [1]; [19]): 3.2
BF β-arrestin1/pPLCβ3 (CB1R [1]; [19]): 4.0
ΔΔlog R β-arrestin1/pPLCβ3 (CB1R [1]; [19]): 0.6 ± 0.4
Emax, 2-AG (probe dependence summary) (CB1R [2]; mean of data for 2-AG (Tables 1-4)): 0.49 ± 0.02
Emax, AEA (probe dependence summary) (CB1R [2]; mean of data for AEA (Tables 1-4)): 0.45 ± 0.03
Emax, CP55,940 (probe dependence summary) (CB1R [2]; mean of data for CP55,940 (Tables 1-4)): 0.50 ± 0.04
Emax, HEK293A (cell dependence summary) (CB1R [2]; mean of data for HEK293A (Tables 1-3)): 0.49 ± 0.02
Emax, Neuro2a (cell dependence summary) (CB1R [2]; mean of data for Neuro2a (Tables 1-3)): 0.50 ± 0.02
Emax, STHdh^Q7/Q7 (cell dependence summary) (CB1R [2]; mean of data for STHdh^Q7/Q7 (Tables 1-3)): 0.51 ± 0.02
effect on CP55,940-induced CB1R internalization (fraction of CB1R at the plasma membrane) (CB1R [3]): reversed this effect
Emax pERK1/2/Total ERK1/2, 2-AG (CB1R [4]; 1 nM-10 μM 2-AG + 1 μM NAM): 0.46 ± 0.02
Emax pERK1/2/Total ERK1/2, AEA (CB1R [4]; 1 nM-10 μM AEA + 1 μM NAM): 0.42 ± 0.02
Emax pERK1/2/Total ERK1/2, CP55,940 (CB1R [4]; 1 nM-10 μM CP55,940 + 1 μM NAM): 0.40 ± 0.01
IC50 (CB1R [5]): 236 nM
Emax, β-arrestin1 (pathway ligand bias summary) (CB1R [5]; mean of data for the pathway (Table 1), all cells and orthosteric ligands): 0.50 ± 0.02
Emax, PLCβ3 (pathway ligand bias summary) (CB1R [6]): 0.55 ± 0.01
BF β-arrestin1/cAMP (hCB1R; [17]): 0.2
BF β-arrestin1/pERK1/2 (hCB1R; [17]): 0.1
BF β-arrestin1/pPLCβ3 (hCB1R; [17]): 0.1
ΔΔlog R β-arrestin1/cAMP (hCB1R; [17]): –0.6 ± 0.8
ΔΔlog R β-arrestin1/pPLCβ3 (hCB1R; [17]): –1.0 ± 0.9
BF β-arrestin1/cAMP (hCB1R; [18]): 0.1
BF β-arrestin1/pERK1/2 (hCB1R; [18]): 15.8
BF β-arrestin1/pPLCβ3 (hCB1R; [18]): 0.03
ΔΔlog R β-arrestin1/cAMP (hCB1R; [18]): –1.2 ± 0.6
ΔΔlog R β-arrestin1/pPLCβ3 (hCB1R; [18]): –1.6 ± 0.6
BF β-arrestin1/cAMP (hCB1R; [19]): 1.0
BF β-arrestin1/pERK1/2 (hCB1R; [19]): 4.0
BF β-arrestin1/pPLCβ3 (hCB1R; [19]): 0.5
ΔΔlog R β-arrestin1/cAMP (hCB1R; [19]): 0.0 ± 0.6
ΔΔlog R β-arrestin1/pPLCβ3 (hCB1R; [19]): –0.3 ± 0.1
Emax, ERK (pathway ligand bias summary) (CB1R [7]): 0.45 ± 0.01
Emax (BRETEff), 2-AG (CB1R [8]; 1 nM-10 μM 2-AG + 1 μM NAM): 0.49 ± 0.03
Emax (BRETEff), AEA (CB1R [8]; 1 nM-10 μM AEA + 1 μM NAM): 0.49 ± 0.02
Emax (BRETEff), CP55,940 (CB1R [8]; 1 nM-10 μM CP55,940 + 1 μM NAM): 0.58 ± 0.03
Emax pERK1/2/Total ERK1/2, 2-AG (CB1R [9]; 1 nM-10 μM 2-AG + 1 μM NAM): 0.48 ± 0.03
Emax pERK1/2/Total ERK1/2, AEA (CB1R [9]; 1 nM-10 μM AEA + 1 μM NAM): 0.44 ± 0.02
Emax pERK1/2/Total ERK1/2, CP55,940 (CB1R [9]; 1 nM-10 μM CP55,940 + 1 μM NAM): 0.43 ± 0.02
BF β-arrestin1/pERK1/2 (CB1R [10]; [17]): 0.5
BF β-arrestin1/pPLCβ3 (CB1R [10]; [17]): 0.3
BF β-arrestin1/pERK1/2 (CB1R [10]; [18]): 1.3
BF β-arrestin1/pPLCβ3 (CB1R [10]; [18]): 0.2
BF β-arrestin1/pERK1/2 (CB1R [10]; [19]): 0.3
BF β-arrestin1/pPLCβ3 (CB1R [10]; [19]): 0.8
Emax, cAMP (pathway ligand bias summary) (CB1R [11]): 0.31 ± 0.04 ^†
effect on cAMP levels in the absence of orthosteric agonists (inverse agonism) (CB1R [11]; HEK-CRE, 10 μM forskolin + 1 nM to 10 μM compound alone, 4 h): increased cAMP levels significantly
IC50 (CB1R [11]; IC50, cAMP, CP55,940): 969 nM
Emax (CB1R [11]; read-out: Emax (% cAMP inhibition), CP55,940): 25.7 ± 1.64%
EC50 (CB1R [12]): 2520 nM
Emax (CB1R [12]; read-out: Emax, [3H]SR141716A binding): -17.6%
Emax pPLCβ3/Total PLCβ3, 2-AG (CB1R [13]; 1 nM-10 μM 2-AG + 1 μM NAM): 0.53 ± 0.02
Emax pPLCβ3/Total PLCβ3, AEA (CB1R [13]; 1 nM-10 μM AEA + 1 μM NAM): 0.52 ± 0.02 ^††
Emax pPLCβ3/Total PLCβ3, CP55,940 (CB1R [13]; 1 nM-10 μM CP55,940 + 1 μM NAM): 0.58 ± 0.02 ^††
Emax (BRETEff), 2-AG (CB1R [14]; 1 nM-10 μM 2-AG + 1 μM NAM): 0.47 ± 0.03
Emax (BRETEff), AEA (CB1R [14]; 1 nM-10 μM AEA + 1 μM NAM): 0.44 ± 0.02
Emax (BRETEff), CP55,940 (CB1R [14]; 1 nM-10 μM CP55,940 + 1 μM NAM): 0.60 ± 0.05
effect on CP55,940 equilibrium binding by CB1R (CB1R [15]): increase CP55,940 equilibrium binding
Emax pPLCβ3/Total PLCβ3, 2-AG (CB1R [16]; HEK293A, 1 nM-10 μM 2-AG + 1 μM NAM, 10 min): 0.52 ± 0.02
Emax pPLCβ3/Total PLCβ3, AEA (CB1R [16]; HEK293A, 1 nM-10 μM AEA + 1 μM NAM, 10 min): 0.49 ± 0.02
Emax pPLCβ3/Total PLCβ3, CP55,940 (CB1R [16]; HEK293A, 1 nM-10 μM CP55,940 + 1 μM NAM, 10 min): 0.60 ± 0.03
IC50 (CB1R [16]; IC50, PLCβ3 phosphorylation, CP55,940): 151 nM
